US20150160214A1, “Quantitation of Cellular Adhesion Dynamics Across Immobilized Receptors Under Rheological Shear Flow” (Mayo Foundation for Medical Education and Research, priority 2013, published 2015)
Values joined by “and” are separate entries in the source; they are usually repeats but may differ in a detail not shown here. Identical values can stand only once.

Assays:
[1] = Far-UV CD spectra, secondary structure content (Example 1); assay type: physicochemical; conditions: free in solution
Text: Both proteins show a spectrum dominated by relatively high α-helical content as indicated by the two minima at λ=222 nm and 208 nm. […] By contrast, the spectrum of the N-terminal peptide is dominated by the contribution of random coil-structure and spectrally equivalent to a peptide containing a scrambled sequence but identical amino acid composition.

[2] = test system: T1, platelet GP1bα (Homo sapiens); test: Platelet pause times and translocation velocities on immobilized A1 under shear flow, parallel-plate flow chamber (Example 1); assay type: cell-based; conditions: 300 μM peptide incubated with immobilized A1-1261; 66 μM in whole blood and buffer
T1 construct: perfused at low shear to enable platelets to attach to the surface immobilized domains; endogenous in cells; host or cells: platelets in citrated whole blood of healthy donors
T1 sequence (P04275 1261-1471): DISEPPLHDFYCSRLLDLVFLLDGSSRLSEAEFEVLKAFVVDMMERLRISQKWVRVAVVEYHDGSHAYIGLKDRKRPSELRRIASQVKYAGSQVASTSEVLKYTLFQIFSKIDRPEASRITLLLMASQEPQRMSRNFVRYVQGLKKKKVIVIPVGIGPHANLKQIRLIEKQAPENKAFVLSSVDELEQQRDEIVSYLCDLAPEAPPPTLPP
Text: (§1) To understand the effect of the N-terminal peptide on the function of the A1-domain of vWF, the protein was expressed with (A1-1238) and without the N-terminal peptide (A1-1261). The inventor used a flow chamber to measure the dynamics of platelet interactions with A1-1238 and A1-1261. Each domain variant was immobilized on glass slides with a modified Cu^2+ chelating chemistry that enabled surface capture via the N-terminally fused histidine tag. This method ensured reproducible capture of the proteins eliminating possible structural issues associated with nonspecific immobilization on plastic or glass. The slides were completely inert to platelets. Next, 1 mL of citrated whole blood followed by Tris buffered saline was perfused at low shear to enable platelets to attach to the surface immobilized domains. After red cells were perfused away with buffer, the translocation of the remaining attached platelets over the surfaces was recorded at each shear rate and the velocities and pause times calculated from the coordinate data of each platelet on the surface as described in the methods. […] In addition, the translocation velocities were increased for A1-1238 relative to A1-1261. To determine if this N-terminal sequence could inhibit the catch bond when free in solution, the inventor incubated surface immobilized A1-1261 with excess free peptide and added the free peptide to 1 mL of whole blood and to our perfusion buffer and performed the assay.
(§2) Determination of platelet pause times. Determination of platelet pause times A Glycotech† rectangular parallel-plate flow chamber was mounted to slides with a chelated Cu 21 surface obtained from Microsurfaces Inc. # to which the A1-1261 and A1-1238 domains in TBS were immobilized by the 63His-Tag. Citrated whole blood (1 mL) obtained from informed consent of healthy donors with approval from the Baylor College of Medicine institutional review board followed by buffer was perfused through the chamber at 300s21 for A1-1261 and 700s21 for A1-1238 shear rate to attach platelets to the surface immobilized proteins using a syringe driven variable flow rate pump. The shear was increased incrementally and 1 min movies were recorded at 25 frames/s in phase contrast with 232 pixel binning on a Zeiss Axiocam MRm camera attached to a Zeiss Axio Observer D1 inverted microscope. Tracking analysis was performed using Mediacybernetics ImagePro Premier§. The resulting X-Y coordinate data for each platelet track was differentiated into instantaneous velocities using a Savitzky-Golay algorithm (Savitzky:1964) with a five data point window size and a second-order polynomial implemented into a Mathamatica notebook. These platelet tracks were retained for statistical analysis if the platelet was present for at least 1 s and travelled a total distance greater than 1 lm. Distance travelled in pixels was converted to lm given the camera pixel size=6.45 μm^2, pixel binning, and microscope magnification=400×. Pause times were determined by the amount of time (seconds) a platelets velocity was =0±0.13 μm/s, within the noise. Pause times for all platelet tracks are reported as the mean of the medians. Examples of this analysis for individual platelets and for multiple platelets are provided in the Supporting Information.
(§3) Frame by frame platelet trajectory analysis. Tracking coordinates of individual platelets in units of pixels were exported from ImagePro Premier as a text file and imported into a Mathematica notebook that calculates a Savitzky-Golay first derivative of the total distance traveled over time (Savitzky:1964). The distance was calculated from the X and Y coordinates with the following equation.
(§4) Pause times were determined from the length of time the platelet velocity remained within 0±4 pixel/sec=0.129 μm/sec as illustrated in FIG. 8B. Median pause times were calculated from velocity time profiles for all platelet tracks, stored in a list and translated to histograms for multiple platelets. […]

[3] = molecular target: T2, platelet GP1bα (Homo sapiens, UniProt P04275); test: as above; assay type: cell-based
T2 construct: perfused at low shear to enable platelets to attach to the surface immobilized domains; endogenous in cells; host or cells: platelets in citrated whole blood of healthy donors
Text: as §1, §2, §3, §4

[4] = molecular target: T3, A1-1261 (Homo sapiens, UniProt P04275); test: Binding of free N-terminal peptide to A1-1261 from thermal unfolding enthalpy (tryptophan fluorescence)
T3 construct: A1-1261 (amino acids D1261-P1471); made in house
Text: This would imply a specific interaction between this N-terminal sequence and the A1 domain when covalently linked in sequence. The only way to examine such a stabilization using spectroscopy was the measurement of thermal unfolding via fluorescence. Since the N-terminal peptide also contains a single tyrosine residue, the excitation wavelength was changed to λ=295 nm in order to measure tryptophan fluorescence and the effect of the peptide on the unfolding of the A1-domain was observed indirectly. Thermal scans of 2 μM A1-1261 were performed as a function of increasing amounts of the N-terminal peptide at 2° Celsius/min. […] Thermal scans were also done in the presence of a peptide with the same amino acid composition, but a scrambled sequence. The inset of FIG. 7A compares the raw fluorescence thermal scans in the presence of 300 μM scrambled and N-terminal peptides. Unfolding in the presence of excess scrambled peptide was equivalent to unfolding in the absence of either peptide. […] Fitting the enthalpy data to a simple single site binding model yields a dissociation constant of ≈46±6 μM.
Prior to all spectroscopic thermal scans, protein samples were equilibrated at 10° Celsius for 15 min to obtain a stable baseline. CD thermal scans between 10 and 95° Celsius were recorded at λ=222 nm using a protein concentration of 1 or 2 μM in a 1 cm quartz cell under moderate stirring. Scan rates were 0.5, 1.0, 1.5 and 2.0° Celsius/min. Integration time for each data point was 20 s with a 1 nm bandwidth. Fluorescence thermal scans between 10 and 95 Celsius were recorded at an emission λ=359 nm after excitation λ=280 nm or λ=295 nm using 2 μM protein in a 1 cm quartz cell with moderate stirring. Scan rates were 0.4 or 0.6, 0.9, 1.6 and 2.0° Celsius/min. At each temperature, relative fluorescence intensity was collected for 4 s and averaged. Thermal scans in the presence of N-terminal peptide at 2.0° Celsius/min were preceded by 1 h incubations at 20° Celsius with 0.02-300 μM peptide.
For the thermal unfolding studies in the presence of peptide, the inventor treated the change in enthalpy of unfolding, ΔHT*^‡ as an observable directly proportional to the degree of binding, X, because the T* was not dependent on peptide concentration.
For the simple single site binding model, A1+P<->A1P, where P is the peptide, the degree of binding is given by
where K is the binding affinity and the free peptide, [P], concentration is given in terms of the total protein, A1T, and peptide, PT, concentrations.

H-QEPGGLVVPPTDAPVSPTTLYVE-OH [N-terminal peptide]
β and random coil content of the sequence [1]: > 80%
Effect of free peptide on platelet pause times on immobilized A1-1261 [2]: significant decrease in pause times
Effect of free peptide on platelet translocation velocities on immobilized A1-1261 ([3]; 300 μM peptide incubated with immobilized A1-1261, 66 μM in whole blood and buffer): increase in translocation velocities
Effect of free peptide on platelet pause times or translocation velocities on immobilized A1-1238 ([3]; free peptide added): did not significantly change the pause times or translocation velocities
Effect of peptide on unfolding enthalpy of A1-1238 [4]: did not change the unfolding enthalpy
Kd ([4]; single site binding model fit to unfolding enthalpy, 2 μM A1-1261, 2° Celsius/min, read-out: Dissociation constant (KD) of N-terminal peptide binding to A1-1261): 46 µM and ~46 µM
